Source: patent US11325889B2, “Substituted 3-((3-aminophenyl)amino)piperidine-2,6-dione compounds, compositions thereof, and methods of treatment therewith” (Celgene Corporation, priority 2018, dated 2022)
Read-outs that look alike come from different tables or passages of the source.

Target: T1, AR protein in VCaP cells (Homo sapiens, UniProt P10275)
T1 construct: endogenous in cells; host or cells: VCaP cells
T1 sequence (P10275 1-920): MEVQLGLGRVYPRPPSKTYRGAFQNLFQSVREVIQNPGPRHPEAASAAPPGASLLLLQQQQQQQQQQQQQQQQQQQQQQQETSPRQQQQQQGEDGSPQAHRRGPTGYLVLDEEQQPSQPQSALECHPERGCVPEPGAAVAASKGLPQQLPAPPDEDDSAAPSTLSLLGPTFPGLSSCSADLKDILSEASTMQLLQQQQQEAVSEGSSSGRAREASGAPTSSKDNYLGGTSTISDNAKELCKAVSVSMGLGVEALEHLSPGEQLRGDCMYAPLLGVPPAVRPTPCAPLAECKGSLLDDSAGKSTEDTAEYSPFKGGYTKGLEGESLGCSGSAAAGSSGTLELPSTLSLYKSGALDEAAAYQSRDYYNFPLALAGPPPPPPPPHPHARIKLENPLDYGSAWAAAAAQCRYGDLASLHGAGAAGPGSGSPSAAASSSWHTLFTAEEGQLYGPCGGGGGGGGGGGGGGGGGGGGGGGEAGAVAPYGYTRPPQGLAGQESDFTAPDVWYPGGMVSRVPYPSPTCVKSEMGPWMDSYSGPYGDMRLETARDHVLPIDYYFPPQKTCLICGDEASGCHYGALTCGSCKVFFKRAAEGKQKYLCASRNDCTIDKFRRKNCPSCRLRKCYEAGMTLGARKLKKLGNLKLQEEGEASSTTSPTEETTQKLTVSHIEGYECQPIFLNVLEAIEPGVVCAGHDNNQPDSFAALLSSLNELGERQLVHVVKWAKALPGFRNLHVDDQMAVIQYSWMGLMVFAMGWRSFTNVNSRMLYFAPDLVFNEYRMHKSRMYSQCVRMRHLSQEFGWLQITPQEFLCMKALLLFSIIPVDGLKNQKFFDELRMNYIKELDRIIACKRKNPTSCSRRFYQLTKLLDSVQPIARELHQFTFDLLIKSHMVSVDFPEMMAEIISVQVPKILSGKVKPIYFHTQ
Test: VCAP AR Degradation Assay (AR ELISA, 24 h)
Format: cell-based
Details: for Y (lowest measured AR level normalized to DMSO control): AR degradation efficiency; for DC50: concentration of compound when AR level = 50% of DMSO control
Description: VCAP AR Degradation Assay.
Test compounds were pre-dispensed into a Corning CellBind 96-well clear bottom plate (Cat #3300) using an acoustic dispenser to make a 10-point concentration series at 1:3 dilution for each compound. The final top concentration of each compound was […]. DMSO at a final concentration of 0.1% was used as a control. VCaP cells cultured in DMEM with 8% fetal bovine serum (FBS) were seeded at 50K cells per well in a 200 μL volume into the compound plate and incubated at 37° C. in a CO2 incubator for 24 h. The medium was carefully removed from the cells and the plate was placed on ice. One hundred […] of ice-cold 1× cell lysis buffer from Cell Signaling Technologies (Cat #9803) was added to each well of the cells and the plate was incubated at 4° C. on a shaker for 1 h. Fifteen […] of cell lysate was used for AR ELISA detection using a PathScan Total Sandwich AR ELISA kit (Cell Signaling Technology, Cat #12580). AR levels in compound-treated wells were normalized to that of DMSO control and expressed as percent of control (PoC) (y). A Four Parameter Logistic Model (Sigmoidal Dose-Response Model) was used to determine the compound's DC50, and EC50, using the following equation: y=(A+((B−A)/(1+((C/x)^D)))) • A=YMin (lowest AR level normalized to DMSO control in response to compound • treatment, as determined by curve fit) • B=YMax (maximum AR level as determined by curve fit) • C=EC50 • D=Hill Slope • x=compound concentration • EC50=the concentration of compound when y=(YMax−YMin)/2 • DC50=the concentration of the compound when y=50% of DMSO control (50% AR degradation) • y=AR protein level normalized to DMSO control
The lowest measured AR level normalized to DMSO control in response to compound treatment, termed Y value, was used to characterize the compound-mediated AR degradation efficiency.

Row | Compound | Y (lowest measured AR level normalized to DMSO control) | DC50 (read-out: DC50) [nM] | DC50 [nM]
1 | CCc1cc(N2C(=S)N(c3ccc(C#N)c(C(F)(F)F)c3)C(=O)C23CCC3)ccc1OCCC1CCN([C@@H](C)C(=O)Nc2cccc(NC3CCC(=O)NC3=O)c2)CC1 (stereo partly drawn) [Cmpd 59, (2S)-2-(4-(2-(4-(7-(4-cyano-3-(trifluoromethyl)phenyl)-8-oxo-6-thioxo-5,7-diazaspiro[3.4]octan-5-yl)-2-ethylphenoxy)ethyl)piperidin-1-yl)-N-(3-(2,6-dioxopiperidin-3-ylamino)phenyl)propanamide] | ** (25%<Y<=35%) | 100 to 500 | –
2 | CC(F)(F)c1cc(N2C(=S)N(c3ccc(C#N)c(C(F)(F)F)c3)C(=O)C2(C)C)ccc1OCCC1CCN(CC(=O)Nc2cc(Cl)cc(NC3CCC(=O)NC3=O)c2)CC1 (centres unmarked) [Cmpd 30, N-(3-chloro-5-(2,6-dioxopiperidin-3-ylamino)phenyl)-2-(4-(2-(4-(3-(4-cyano-3-(trifluoromethyl)phenyl)-5,5-dimethyl-4-oxo-2-thioxoimidazolidin-1-yl)-2-(1,1-difluoroethyl)phenoxy)ethyl)piperidin-1-yl)acetamide] | * (0<Y<=25%) | 100 to 500 | –
3 | CCc1cc(N2C(=S)N(c3cnc(C#N)c(C(F)(F)F)c3)C(=O)C2(C)C)ccc1OCC[C@@H]1CCN(CC(=O)Nc2cc(NC3CCC(=O)NC3=O)ccc2F)[C@H](C)C1 (stereo partly drawn) [Cmpd 79, 2-((2R,4R)-4-(2-(4-(3-(6-cyano-5-(trifluoromethyl)pyridin-3-yl)-5,5-dimethyl-4-oxo-2-thioxoimidazolidin-1-yl)-2-ethylphenoxy)ethyl)-2-methylpiperidin-1-yl)-N-(5-(2,6-dioxopiperidin-3-ylamino)-2-fluorophenyl)acetamide] | ** (25%<Y<=35%) | 100 to 500 | –
4 | CC1(C)C(=O)N(c2ccc(C#N)c(C(F)(F)F)c2)C(=S)N1c1ccc(OCCC2CCN(CC(=O)Nc3cccc(NC4CCC(=O)NC4=O)c3)CC2)c(F)c1 (centres unmarked) [Cmpd 3, 2-(4-(2-(4-(3-(4-cyano-3-(trifluoromethyl)phenyl)-5,5-dimethyl-4-oxo-2-thioxoimidazolidin-1-yl)-2-fluorophenoxy)ethyl)piperidin-1-yl)-N-(3-(2,6-dioxopiperidin-3-ylamino)phenyl)acetamide] | ** (25%<Y<=35%) | 100 to 500 | –
5 | CCc1cc(N2C(=S)N(c3ccc(C#N)c(C(F)(F)F)c3)C(=O)C23CCC3)ccc1OCCC1CCN([C@@H](C)C(=O)Nc2cc(NC3CCC(=O)NC3=O)ccc2F)CC1 (stereo partly drawn) [Cmpd 74, (2S)-2-(4-(2-(4-(7-(4-cyano-3-(trifluoromethyl)phenyl)-8-oxo-6-thioxo-5,7-diazaspiro[3.4]octan-5-yl)-2-ethylphenoxy)ethyl)piperidin-1-yl)-N-(5-(2,6-dioxopiperidin-3-ylamino)-2-fluorophenyl)propanamide] | ** (25%<Y<=35%) | 100 to 500 | –
6 | CCc1cc(N2C(=S)N(c3ccc(C#N)c(C(F)(F)F)c3)C(=O)C23CCC3)ccc1OCCC1CCN([C@H](C)C(=O)Nc2cc(NC3CCC(=O)NC3=O)ccc2F)CC1 (stereo partly drawn) [Cmpd 75, (2R)-2-(4-(2-(4-(7-(4-cyano-3-(trifluoromethyl)phenyl)-8-oxo-6-thioxo-5,7-diazaspiro[3.4]octan-5-yl)-2-ethylphenoxy)ethyl)piperidin-1-yl)-N-(5-(2,6-dioxopiperidin-3-ylamino)-2-fluorophenyl)propanamide] | ** (25%<Y<=35%) | 100 to 500 | –
7 | CCc1cc(N2C(=S)N(c3cnc(C#N)c(C(F)(F)F)c3)C(=O)C2(C)C)ccc1OCCC1CCN(C2(C(=O)Nc3cc(Cl)cc(NC4CCC(=O)NC4=O)c3)CC2)CC1 (centres unmarked) [Cmpd 34, N-(3-chloro-5-(2,6-dioxopiperidin-3-ylamino)phenyl)-1-(4-(2-(4-(3-(6-cyano-5-(trifluoromethyl)pyridin-3-yl)-5,5-dimethyl-4-oxo-2-thioxoimidazolidin-1-yl)-2-ethylphenoxy)ethyl)piperidin-1-yl)cyclopropanecarboxamide] | *** (35%<Y<50%) | 500 to 1000 | –
8 | CCc1cc(N2C(=S)N(c3cnc(C#N)c(C(F)(F)F)c3)C(=O)C2(C)C)ccc1OC1CCN(CC(=O)Nc2cc(NC3CCC(=O)NC3=O)ccc2F)CC1 (centres unmarked) [Cmpd 52, 2-(4-(4-(3-(6-cyano-5-(trifluoromethyl)pyridin-3-yl)-5,5-dimethyl-4-oxo-2-thioxoimidazolidin-1-yl)-2-ethylphenoxy)piperidin-1-yl)-N-(5-(2,6-dioxopiperidin-3-ylamino)-2-fluorophenyl)acetamide] | *** (35%<Y<50%) | 100 to 500 | –
9 | CC1(C)C(=O)N(c2ccc(C#N)c(C(F)(F)F)c2)C(=S)N1c1ccc(OCCC2CCN(CC(=O)Nc3cccc(NC4CCC(=O)NC4=O)c3)CC2)c(CCF)c1 (centres unmarked) [Cmpd 48, 2-(4-(2-(4-(3-(4-cyano-3-(trifluoromethyl)phenyl)-5,5-dimethyl-4-oxo-2-thioxoimidazolidin-1-yl)-2-(2-fluoroethyl)phenoxy)ethyl)piperidin-1-yl)-N-(3-(2,6-dioxopiperidin-3-ylamino)phenyl)acetamide] | * (0<Y<=25%) | < 100 | –
10 | CCc1cc(N2C(=S)N(c3cnc(C#N)c(C(F)(F)F)c3)C(=O)C2(C)C)ccc1OCC[C@H]1CCN(CC(=O)Nc2cc(NC3CCC(=O)NC3=O)ccc2F)[C@H](C)C1 (stereo partly drawn) [Cmpd 77, 2-((2R,4S)-4-(2-(4-(3-(6-cyano-5-(trifluoromethyl)pyridin-3-yl)-5,5-dimethyl-4-oxo-2-thioxoimidazolidin-1-yl)-2-ethylphenoxy)ethyl)-2-methylpiperidin-1-yl)-N-(5-(2,6-dioxopiperidin-3-ylamino)-2-fluorophenyl)acetamide] | * (0<Y<=25%) | 100 to 500 | –
11 | CCc1cc(N2C(=S)N(c3cnc(C#N)c(C(F)(F)F)c3)C(=O)C23CCC3)ccc1OCC[C@H]1CCN(CC(=O)Nc2cccc(NC3CCC(=O)NC3=O)c2)C(C)(C)C1 (stereo partly drawn) [Cmpd 55, 2-((S)-4-(2-(4-(7-(6-cyano-5-(trifluoromethyl)pyridin-3-yl)-8-oxo-6-thioxo-5,7-diazaspiro[3.4]octan-5-yl)-2-ethylphenoxy)ethyl)-2,2-dimethylpiperidin-1-yl)-N-(3-(2,6-dioxopiperidin-3-ylamino)phenyl)acetamide] | * (0<Y<=25%) | 100 to 500 | –
12 | CCc1cc(N2C(=S)N(c3cnc(C#N)c(C(F)(F)F)c3)C(=O)C2(C)C)ccc1OCC[C@@H]1C[C@H]2CC[C@@H](C1)N2CC(=O)Nc1cccc(NC2CCC(=O)NC2=O)c1 (stereo partly drawn) [Cmpd 66, 2-((1R,3s,5S)-3-(2-(4-(3-(6-cyano-5-(trifluoromethyl)pyridin-3-yl)-5,5-dimethyl-4-oxo-2-thioxoimidazolidin-1-yl)-2-ethylphenoxy)ethyl)-8-azabicyclo[3.2.1]octan-8-yl)-N-(3-(2,6-dioxopiperidin-3-ylamino)phenyl)acetamide] | * (0<Y<=25%) | – | < 100
13 | CCc1cc(N2C(=S)N(c3ccc(C#N)c(C(F)(F)F)c3)C(=O)C2(C)C)ccc1OC1CCN(CC(=O)Nc2cccc(NC3CCC(=O)NC3=O)c2)CC1 (centres unmarked) [Cmpd 50, 2-(4-(4-(3-(4-cyano-3-(trifluoromethyl)phenyl)-5,5-dimethyl-4-oxo-2-thioxoimidazolidin-1-yl)-2-ethylphenoxy)piperidin-1-yl)-N-(3-(2,6-dioxopiperidin-3-ylamino)phenyl)acetamide] | ** (25%<Y<=35%) | 100 to 500 | –
